Experimental findings from ChEMBL document CHEMBL5385950, “Terpenoids from the Soft Coral Stereonephthya bellissima” (J Nat Prod, 2024) are described below.

Molecules are shown by their SMILES. Activity calls are given as the source filed them. The calls are words filed in the database; no cut-off is given here.

The species entered for this assay is Danio rerio. Put plainly: Pro-angiogenesis activity against PTK787 induced vascular injury in Tg(vegfr2: EGFP) zebrafish at 20 uM measured after 24 hrs by fluorescence imaging analysis. Format: functional, organism-based.

As to `CC(=O)C1=CCC[C@]23O[C@H]2CC[C@](C)(O)[C@@]13C`, the outcome was Active.
